Data set [1] has as its target human C5 complement protein (Homo sapiens, UniProt P01031). Kind of data set: Surface plasmon resonance (SPR), immobilized human C5, 37° C. (Example 18, Table 24). Type of data set: binding. As to conditions: lowest value obtained where a range of concentrations was analyzed. For orientation: Surface plasmon resonance follows binding to a sensor surface in real time, without labels.

A short description of data set [2]: Kinetic solubility in PBS pH 7.4, HPLC-UV (Example 21, Table 27). Conditions: phosphate buffered saline, aqueous buffer, kinetic from dmso stock, 0.5 M PBS, shaken minimum 24 h at approximately 25° C., HPLC-UV 270 nm. It counts as physicochemical. Summed up: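 10 mM DMSO stock diluted into 0.05 M PBS pH 7.4 (5% DMSO final), in triplicate, shaken ≥24 h at ~25 °C, then filtered by centrifugation. Supernatant concentration by HPLC-UV at 270 nm against external DMSO standards (15.6–500.0 μM).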

The structures appear in SMILES notation. pKd: −log10 of the molar value. Converted amounts (≈) assume the structure as drawn.

Sequence of human C5 complement protein (P01031 19-1676): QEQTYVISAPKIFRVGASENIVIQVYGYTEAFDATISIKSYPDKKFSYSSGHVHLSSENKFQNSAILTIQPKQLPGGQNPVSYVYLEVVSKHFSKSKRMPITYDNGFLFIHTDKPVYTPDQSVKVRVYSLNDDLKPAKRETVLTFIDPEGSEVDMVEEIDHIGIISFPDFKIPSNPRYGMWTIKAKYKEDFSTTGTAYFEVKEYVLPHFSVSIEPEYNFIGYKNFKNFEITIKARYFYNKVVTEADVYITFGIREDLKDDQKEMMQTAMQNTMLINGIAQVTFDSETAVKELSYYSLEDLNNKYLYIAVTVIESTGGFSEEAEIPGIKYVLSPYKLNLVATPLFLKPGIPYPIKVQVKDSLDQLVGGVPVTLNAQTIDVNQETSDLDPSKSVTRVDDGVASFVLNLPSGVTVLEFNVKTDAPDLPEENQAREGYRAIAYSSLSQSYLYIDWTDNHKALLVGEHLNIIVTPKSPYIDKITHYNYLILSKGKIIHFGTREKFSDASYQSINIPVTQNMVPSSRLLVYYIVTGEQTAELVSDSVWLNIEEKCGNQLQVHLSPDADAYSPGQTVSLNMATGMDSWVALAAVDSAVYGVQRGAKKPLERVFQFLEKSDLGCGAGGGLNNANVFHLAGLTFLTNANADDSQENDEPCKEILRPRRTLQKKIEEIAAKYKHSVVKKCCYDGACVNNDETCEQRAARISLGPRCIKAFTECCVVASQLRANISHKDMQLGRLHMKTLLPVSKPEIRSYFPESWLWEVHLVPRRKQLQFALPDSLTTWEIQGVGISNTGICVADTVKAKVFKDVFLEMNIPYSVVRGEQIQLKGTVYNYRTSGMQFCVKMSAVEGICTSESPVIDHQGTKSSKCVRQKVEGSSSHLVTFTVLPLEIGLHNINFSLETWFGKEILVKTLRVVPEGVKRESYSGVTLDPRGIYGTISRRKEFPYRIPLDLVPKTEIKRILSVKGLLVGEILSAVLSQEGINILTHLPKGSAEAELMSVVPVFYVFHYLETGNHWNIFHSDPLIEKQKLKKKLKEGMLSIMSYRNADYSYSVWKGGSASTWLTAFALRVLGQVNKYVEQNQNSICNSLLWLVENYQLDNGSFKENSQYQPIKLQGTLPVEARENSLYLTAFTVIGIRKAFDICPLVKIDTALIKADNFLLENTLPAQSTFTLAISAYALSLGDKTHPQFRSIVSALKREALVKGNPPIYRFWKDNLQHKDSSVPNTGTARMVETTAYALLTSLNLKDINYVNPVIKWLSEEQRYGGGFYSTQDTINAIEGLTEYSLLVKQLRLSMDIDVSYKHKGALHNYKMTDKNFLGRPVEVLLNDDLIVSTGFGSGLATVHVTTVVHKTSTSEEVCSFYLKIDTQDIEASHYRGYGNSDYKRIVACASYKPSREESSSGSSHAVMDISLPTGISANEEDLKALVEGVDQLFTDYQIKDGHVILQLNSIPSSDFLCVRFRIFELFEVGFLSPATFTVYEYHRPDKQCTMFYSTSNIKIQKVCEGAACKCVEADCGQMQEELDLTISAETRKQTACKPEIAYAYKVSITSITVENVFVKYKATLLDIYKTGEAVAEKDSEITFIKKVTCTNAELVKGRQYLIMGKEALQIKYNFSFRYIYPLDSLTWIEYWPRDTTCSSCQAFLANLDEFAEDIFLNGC

Regarding `COc1ccc(N2CCCN(Cc3cccc4c3c(Cl)cn4CC(=O)N(C)C)C2=O)cc1OCCC[C@H]1C[C@H]1C` (racemic) [CU0515], in data set [1], the pKd was 9.49. The solubility (kinetic) in data set [2] is under 10 µM.
In the same order, the values of `COc1ccc(N2CCCN(Cc3ccnc4c3c(Cl)cn4CC(=O)N(C)C)C2=O)cc1OCCC[C@H]1C[C@H]1C` (racemic) [CU0516] are 9.82 and 30 µM (≈ 17 µg/mL).
In the same order, the values of `COc1ccc(N2CCCN(Cc3cccc4c3c(Cl)cn4CC(=O)N(C)C)C2=O)cc1OCCC[C@H]1C[C@@H]1C` (racemic) [CU0524] are 10.42 and under 10 µM.
In the same order, the values of `CCCCCOc1cc(N2CCCN(Cc3ccnc4c3c(Cl)cn4CC(=O)NOC)C2=O)ccc1OC` [CU0500] are 8.92 and 10 µM (≈ 5.44 µg/mL).
As to `CCCCCOc1cc(N2CCCN(Cc3ccnc4c3c(Cl)cn4CC(=O)N3CCO[C@@H](CN(C)C)C3)C2=O)ccc1OC` [CU0519], the pKd in data set [1] was 9.54.
On the same count and under the same terms, under `CCCCCOc1cc(N2CCCN(Cc3ccnc4c3c(Cl)cn4CC(=O)N(C)OC)C2=O)ccc1OC` [CU0527] stands 10.39.
With `CCCCCOc1cc(N2CCCN(Cc3ccnc4c3c(Cl)cn4CC(=O)N(C)CCC#N)C2=O)ccc1OC` [CU0528], in data set [1], the pKd is 10.24. This compound also returned a kinetic solubility in data set [2] of 50 µM (≈ 29.1 µg/mL).
The compound `COc1ccc(N2CCCN(Cc3ccnc4c3c(Cl)cn4CC(=O)N(C)C)C2=O)cc1OCCCC1CC1` [CU0530] showed a pKd in data set [1] of 10.29.
Still for that read-out and setting: as for `CCCCCOc1cc(N2CCCN(Cc3ccnc4c3c(I)cn4CC(=O)N(C)C)C2=O)ccc1OC` [CU0535], the figure is 10.28.
The same measure, in the same setting: under `COc1cc(CNC(=O)c2cocn2)ccc1CN1CCCN(c2ccc(OC)c(OCCCC3CC3)c2)C1=O` [CU0537] stands 10.41.
In data set [1], `CCCCCOc1cc(N2CCCN(Cc3ccnc4c3c(Cl)cn4CC(=O)NC3COC3)C2=O)ccc1OC` [CU0540] showed a pKd of 9.80. This compound registered a kinetic solubility in data set [2] of under 10 µM.
The matching figures for `CCCCCOc1cc(N2CCCN(Cc3ccnc4c3c(Cl)cn4CC(=O)N3CCCC3)C2=O)ccc1OC` [CU0541]: 9.51 and 61 µM (≈ 34.7 µg/mL).
The matching figures for `CCCCCOc1cc(N2CCCN(Cc3cccc4c3c(Br)cn4CC(=O)N(C)C)C2=O)ccc1OC` [CU0543]: 10.80 and 256 µM (≈ 150 µg/mL).
The matching figures for `COc1cc(CC(=O)N2CCOC(CN(C)C)C2)ccc1CN1CCCN(c2ccc(OC)c(OCCCC3CC3)c2)C1=O` (stereo not shown) [CU0550]: 10.51 and 455 µM (≈ 277 µg/mL).
With `CCCCCOc1cc(N2CCCN(Cc3ccnc4c3c(Cl)cn4CC(=O)NC3CCOC3)C2=O)ccc1OC` (stereo not shown) [CU0561], the pKd in data set [1] was 9.85.
Consider `COc1cc(CC(=O)N2CCNC(=O)C2)ccc1CN1CCCN(c2ccc(OC)c(OCCCC3CC3)c2)C1=O` [CU0562], for which, in data set [1], the pKd is 9.30. Besides, in data set [2], the solubility (kinetic) turned out to be 480 µM (≈ 271 µg/mL).
In data set [1], `COc1cc(CNC(=O)c2cocn2)ccc1CN1CCCN(c2ccc(OC)c(OCCCC3CCC3)c2)C1=O` [CU0565] gave a pKd of 10.62.
As to `CCCCCOc1cc(N2CCCN(Cc3ccnc4c3c(Cl)cn4CC(=O)NC3(C)COC3)C2=O)ccc1OC` [CU0567], the pKd in data set [1] is 9.93. Moreover, the solubility (kinetic) in data set [2] was under 10 µM.
Compound `COc1cc(CNC(=O)c2cocn2)ccc1CN1CCCN(c2ccc(OC)c(OCCCCC3CC3)c2)C1=O` [CU0571] gave a pKd in data set [1] of 9.32.
The same measure, in the same setting: under `C#CC(C)NC(=O)Cn1cc(Cl)c2c(CN3CCCN(c4ccc(OC)c(OCCCCC)c4)C3=O)ccnc21` (stereo not shown) [CU0572] stands 10.13; under `CCCCCOc1cc(N2CCCN(Cc3ccnc4c3c(Cl)cn4CC(=O)NO)C2=O)ccc1OC` [CU0575], 9.52.
The same measure, in the same setting: as for `CCCCCOc1cc(N2CCCN(Cc3ccnc4c3c(Cl)cn4CCO)C2=O)ccc1OC` [CU0576], the figure is 9.66.
The compound `COc1cc(CC(=O)N2CCOCC2)ccc1CN1CCCN(c2ccc(OC)c(OCCCC3CCC3)c2)C1=O` [CU0589] had a negative logarithm of the Kd (pKd) in data set [1] of 9.52. This compound also displayed a kinetic solubility in data set [2] of 131 µM (≈ 74.1 µg/mL).
Regarding `CCCCCOc1cc(N2CCCN(Cc3ccc(CNC(=O)c4ccco4)cc3OC)C2=O)ccc1OC` [CU0597], the pKd in data set [1] is 9.94.
In turn, `COc1cc(CC(=O)N2CCOCC2)ccc1CN1CCCN(c2ccc(OC)c(OCCCCC3CC3)c2)C1=O` [CU0598] had a pKd in data set [1] of 9.13. In data set [2], this compound came in with a solubility (kinetic) of under 10 µM.
In data set [1], `COc1cc(CC(=O)N2CCOCC2)ccc1CN1CCCN(c2ccc(OC)c(OCCCC3CC3(F)F)c2)C1=O` (stereo not shown) [CU0601] gave a pKd of 9.88.
`COc1ccc(N2CCCN(Cc3ccnc4c3c(Cl)cn4CC(=O)N(C)C)C2=O)cc1OCCC[C@H]1C[C@@H]1C` [CU0610] had a pKd in data set [1] of 9.68. Moreover, in data set [2], the kinetic solubility is 37 µM (≈ 21 µg/mL).
In the same order, the values of `COc1cc(CNC(C)=O)ccc1CN1CCCN(c2ccc(OC)c(OCCCCC3CC3)c2)C1=O` [CU0613] are 9.27 and 190 µM (≈ 96.8 µg/mL).
The compound `CCCCCOc1cc(N2CCCN(Cc3ccc(CNC4CCN(C)C4=O)cc3OC)C2=O)ccc1OC` (stereo not shown) [CU0626] showed a pKd in data set [1] of 8.98.
On the same count and under the same terms, under `CCCCCOc1cc(N2CCCN(Cc3ccc(CC(=O)N4CCCC4C)cc3OC)C2=O)ccc1OC` (stereo not shown) [CU0632] stands 9.06.
In turn, `COc1cc(CC(=O)N(C)C)ccc1CN1CCCN(c2ccc(OC)c(OCCCCC(C)(C)C)c2)C1=O` [CU0638] had a pKd in data set [1] of 10.03. The compound further displayed a kinetic solubility in data set [2] of 30 µM (≈ 16.2 µg/mL).
In the same order, the values of `CCCCCOc1cc(N2CCCN(Cc3cccc4c3ccn4[C@H]3CCN(C)C3=O)C2=O)ccc1OC` [CU0644] are 8.95 and 450 µM (≈ 233 µg/mL).
The compound `COc1cc(CN)ccc1CN1CCCN(c2ccc(OC)c(OCCCC3CC3)c2)C1=O` [CU0657] showed a pKd in data set [1] of 8.88.
The same measure, in the same setting: under `COc1cc(CCN2CCCC2)ccc1CN1CCCN(c2ccc(OC)c(OCCCC3CC3)c2)C1=O` [CU0662] stands 8.94; under `COc1cc(CCNC(C)=O)ccc1CN1CCCN(c2ccc(OC)c(OCCCC3CC3)c2)C1=O` [CU0668], 8.60.
Same read-out and setting: under `COc1cc(CNC(=O)OC(C)(C)C)ccc1CN1CCCN(c2ccc(OC)c(OCCCC3CC3)c2)C1=O` [CU0669] stands 10.39.
Take `CCCCCOc1cc(N2CCCN(Cc3ccc(CCN4CCCC4(C)C)cc3OC)C2=O)ccc1OC` [CU0671]: the pKd in data set [1] was 9.56. Also, the solubility (kinetic) in data set [2] was 397 µM (≈ 213 µg/mL).
The matching figures for `CCCCCOc1cc(N2CCCN(Cc3cccc4c3ccn4CC3(O)CCN(CC(=O)N(C)C)CC3)C2=O)ccc1OC` [CU0675]: 9.07 and 430 µM (≈ 267 µg/mL).
Take `COc1cc(CN)ccc1CN1CCCN(c2ccc(OC)c(OCCCCC3CC3)c2)C1=O` [CU0686]: the pKd in data set [1] is 9.21.
In data set [1], `CCCCCOc1cc(N2CCCN(Cc3ccc(CCN4[C@H](C)CC[C@@H]4C)cc3OC)C2=O)ccc1OC` [CU0690] had a pKd of 8.77.
Same read-out and setting: under `CCCCCOc1cc(N2CCCN(Cc3ccc(CCNC(C)=O)cc3OC)C2=O)ccc1OC` [CU0695] stands 8.87; under `COc1cc(CCN2CCCC2)ccc1CN1CCCN(c2ccc(OC)c(OCCCC3CCC3)c2)C1=O` [CU0699], 10.11; under `CCCCCOc1cc(N2CCCN(Cc3ccc(CCNC=O)cc3OC)C2=O)ccc1OC` [CU0704], 8.63.
Still for that read-out and setting: under `COc1cc(CN)ccc1CN1CCCN(c2ccc(OC)c(OCCCC3CCC3)c2)C1=O` [CU0708] stands 10.74; under `COc1cc(CCN2CCCC2)ccc1CN1CCCN(c2ccc(OC)c(OCCCCC3CC3)c2)C1=O` [CU0718], 9.61.

One may read the pKd as −log10 of the Kd, conventionally taken in molar units. Read a low pKd as a high Kd. As usually defined, the kinetic solubility is the concentration staying in solution when a stock, usually in DMSO, is diluted into the medium.
